Source: PubChem BioAssay (NCI)
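These data come from cells grown in 96-well plates and exposed to compound for 48 hours at five concentrations. GI50: concentration for 50% inhibition of growth. At the TGI there is no net growth.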 *1 amine or outer side, *2 acyl side, *3 side chain or, on linkers, in order; H or OH if unused. Where a SMILES comes first, the peptide text is derived from it. [ ]: non-standard residue; d: D form. The star is where a group is joined. X41 = CCC(=O)CC1CC(C)CC(C(=O)[*:2])N1[*:1]; X40 = CCCCCCCCC(C)C(=O)*; Aib = CC(C)(N)C(=O)O; X42 = CC(CN(C)CCO)N*

Tests used:
Experiment in all cases: DTP human tumour cell line panel, 48 h
[1] = test system: CCRF-CEM leukemia
[2] = test system: HCT-116 colon
[3] = test system: RXF 393 renal
[4] = test system: SK-MEL-5 melanoma
[5] = test system: HOP-62 NSCLC
[6] = test system: LOX IMVI melanoma
[7] = test system: K-562 leukemia
[8] = test system: HL-60(TB) leukemia
[9] = test system: IGROV1 ovarian
[10] = test system: BT-549 breast
[11] = test system: SK-MEL-2 melanoma
[12] = test system: SW-620 colon
[13] = test system: PC-3 prostate
[14] = test system: CAKI-1 renal
[15] = test system: SN12C renal
[16] = test system: KM12 colon
[17] = test system: NCI-H460 lung
[18] = test system: 786-0 renal
[19] = test system: HS 578T breast
[20] = test system: SF-268 CNS
[21] = test system: SNB-19 CNS
[22] = test system: EKVX NSCLC
[23] = test system: SF-295 CNS
[24] = test system: COLO 205 colon
[25] = test system: OVCAR-5 ovarian
[26] = test system: DU-145 prostate
[27] = test system: SNB-75 CNS
[28] = test system: MDA-MB-435
[29] = test system: NCI-H522 lung
[30] = test system: MOLT-4 leukemia
[31] = test system: SK-MEL-28 melanoma
[32] = test system: NCI-H226 lung
[33] = test system: HCT-15 colon
[34] = test system: HOP-92 NSCLC
[35] = test system: ACHN renal
[36] = test system: A549 NSCLC
[37] = test system: NCI/ADR-RES ovarian
[38] = test system: OVCAR-4 ovarian
[39] = test system: UACC-257 melanoma
[40] = test system: OVCAR-8 ovarian
[41] = test system: M14 melanoma
[42] = test system: U251 CNS
[43] = test system: SF-539 CNS
[44] = test system: MALME-3M melanoma
[45] = test system: UO-31 renal
[46] = test system: HT29 colon
[47] = test system: SR leukemia
[48] = test system: MDA-MB-231 breast
[49] = test system: UACC-62 melanoma
[50] = test system: RPMI-8226 leukemia
[51] = test system: SK-OV-3 ovarian
[52] = test system: TK-10 renal
[53] = test system: A498 renal
[54] = test system: NCI-H23 lung
[55] = test system: OVCAR-3 ovarian
[56] = test system: T-47D breast
[57] = test system: HCC-2998 colon
[58] = test system: MCF7 breast

CC1OC(=O)c2ccccc2NC1=O (centres undefined)
TGI [1]: > 100 µM
TGI [2]: > 100 µM
TGI [3]: > 100 µM
TGI [4]: > 100 µM
TGI [5]: > 100 µM
TGI [6]: > 100 µM
TGI [7]: > 100 µM
TGI [8]: > 100 µM
TGI [9]: > 100 µM
TGI [10]: > 100 µM
TGI [11]: > 100 µM
TGI [12]: > 100 µM
TGI [13]: > 100 µM
TGI [14]: > 100 µM
TGI [15]: > 100 µM
TGI [16]: > 100 µM
TGI [17]: > 100 µM
TGI [18]: > 100 µM
TGI [19]: > 100 µM
TGI [20]: > 100 µM
TGI [21]: > 100 µM
TGI [22]: > 100 µM
TGI [23]: > 100 µM
TGI [24]: > 100 µM
TGI [25]: > 100 µM
TGI [26]: > 100 µM
TGI [27]: > 100 µM
TGI [28]: > 100 µM
TGI [29]: > 100 µM
TGI [30]: > 100 µM
TGI [31]: > 100 µM
TGI [32]: > 100 µM
TGI [33]: > 100 µM
TGI [34]: > 100 µM
TGI [35]: > 100 µM
TGI [36]: > 100 µM
TGI [37]: > 100 µM
TGI [38]: > 100 µM
TGI [39]: > 100 µM
TGI [40]: > 100 µM
TGI [41]: > 100 µM
TGI [42]: > 100 µM
TGI [43]: > 100 µM
TGI [44]: > 100 µM
TGI [45]: > 100 µM
TGI [46]: > 100 µM
TGI [47]: > 100 µM
TGI [48]: > 100 µM
TGI [49]: > 100 µM
TGI [50]: > 100 µM
TGI [51]: > 100 µM
TGI [52]: > 100 µM
TGI [53]: > 100 µM
TGI [54]: > 100 µM
TGI [55]: > 100 µM

CC(=O)OCC(=O)[C@@]1(O)CC[C@H]2[C@@H]3CCC4=CC(=O)C=C[C@]4(C)[C@@]3(F)[C@@H](O)C[C@@]21C
TGI [13]: > 100 µM

c1ccc2c3nnc(c2c1)SCCSCCSc1nnc(c2ccccc12)SCCSCCS3
TGI [4]: > 100 µM
TGI [5]: > 100 µM
TGI [6]: > 100 µM
TGI [9]: > 100 µM
TGI [11]: > 100 µM
TGI [12]: > 100 µM
TGI [13]: > 100 µM
TGI [15]: > 100 µM
TGI [17]: > 100 µM
TGI [19]: > 100 µM
TGI [20]: > 100 µM
TGI [22]: > 100 µM
TGI [23]: > 100 µM
TGI [24]: > 100 µM
TGI [27]: > 100 µM
TGI [29]: > 100 µM
TGI [30]: > 100 µM
TGI [33]: > 100 µM
TGI [34]: > 100 µM
TGI [35]: > 100 µM
TGI [36]: > 100 µM
TGI [37]: > 100 µM
TGI [38]: > 100 µM
TGI [39]: > 100 µM
TGI [40]: > 100 µM
TGI [41]: > 100 µM
TGI [44]: > 100 µM
TGI [46]: > 100 µM
TGI [47]: > 100 µM
TGI [48]: > 100 µM
TGI [49]: > 100 µM
TGI [56]: > 100 µM
TGI [51]: > 100 µM
TGI [55]: > 100 µM

CCCCCCCCC(C)C(=O)N1CCCC1C(=O)N1C(CC(=O)CC)CC(C)CC1C(=O)NC(C)C(=O)NC(C)(C)C(=O)NC(C)(C)C(=O)NC(C(=O)NC(C)C(=O)NC(C)(C)C(=O)NC(C)(C)C(=O)NC(C)CN(C)CCO)C(C)CC (centres undefined) (X40-P[X41]A[Aib][Aib]IA[Aib][Aib]-X42; configuration not given here)
TGI [10]: 6.63 µM
TGI [32]: 1.22 µM
TGI [34]: 0.0435 µM
TGI [39]: 2.5 µM
TGI [54]: 1.05 µM

Cc1ccc2c(O)c3c(cc2c1)C(=O)c1c2c(cc(O)c1C3=O)C1(C)OC(O2)C(O)C(N(C)C)C1O (centres undefined)
TGI [7]: 0.442 µM
TGI [16]: 2.77 µM
TGI [18]: 1.6 µM
TGI [20]: 81 µM
TGI [24]: 1.91 µM
TGI [25]: 3.73 µM
TGI [57]: 2340 nM
TGI [26]: 2.23 µM
TGI [33]: 2.44 µM
TGI [34]: 2.22 µM
TGI [35]: 1.88 µM
TGI [37]: 2.42 µM
TGI [52]: 3.1 µM
TGI [53]: 2.37 µM
TGI [55]: 1.59 µM

CC/C=C\CCC/C=C1/C(=O)C=C[C@@H]1C/C=C\CCCC(=O)O
GI50 [1]: 2840 nM
TGI [1]: 16.2 µM
GI50 [2]: 2530 nM
TGI [2]: 5.79 µM
GI50 [3]: 3.68 µM
TGI [3]: 10.3 µM
GI50 [4]: 1720 nM
TGI [4]: 3.31 µM
GI50 [5]: 7.61 µM
TGI [5]: 22 µM
GI50 [6]: 1460 nM
TGI [6]: 3.22 µM
GI50 [7]: 2500 nM
TGI [7]: 37.9 µM
GI50 [8]: 2750 nM
TGI [8]: 7.41 µM
GI50 [9]: 4.12 µM
TGI [9]: 15.9 µM
GI50 [11]: 4.82 µM
TGI [11]: 18.3 µM
GI50 [12]: 4.46 µM
TGI [12]: 18 µM
GI50 [13]: 3.64 µM
TGI [13]: 9.82 µM
GI50 [14]: 3.43 µM
TGI [14]: 11.9 µM
GI50 [15]: 3.05 µM
TGI [15]: 8.5 µM
GI50 [16]: 2460 nM
TGI [16]: 6.62 µM
GI50 [17]: 4.49 µM
TGI [17]: 25.3 µM
GI50 [18]: 4.37 µM
TGI [18]: 15.1 µM
GI50 [19]: 13.7 µM
TGI [19]: 59.3 µM
GI50 [20]: 5.03 µM
TGI [20]: 22.1 µM
GI50 [21]: 5.45 µM
TGI [21]: 20 µM
GI50 [22]: 4.02 µM
TGI [22]: 14 µM
GI50 [23]: 2870 nM
TGI [23]: 8.13 µM
GI50 [24]: 5.83 µM
TGI [24]: 18.4 µM
GI50 [25]: 4.85 µM
TGI [25]: 15.3 µM
GI50 [57]: 1800 nM
TGI [57]: 3390 nM
GI50 [26]: 11.3 µM
TGI [26]: 23.8 µM
GI50 [27]: 18 µM
TGI [27]: 44.9 µM
GI50 [28]: 2010 nM
TGI [28]: 4.99 µM
GI50 [29]: 2020 nM
TGI [29]: 4.78 µM
GI50 [30]: 2440 nM
TGI [30]: 8.93 µM
GI50 [31]: 3.13 µM
TGI [31]: 10.6 µM
GI50 [32]: 4.35 µM
TGI [32]: 30.1 µM
GI50 [33]: 1930 nM
TGI [33]: 4.52 µM
GI50 [34]: 13.2 µM
TGI [34]: 27 µM
GI50 [35]: 1890 nM
TGI [35]: 3.61 µM
GI50 [36]: 12.8 µM
TGI [36]: 32.7 µM
GI50 [37]: 2960 nM
TGI [37]: 11.8 µM
GI50 [38]: 6.93 µM
TGI [38]: 22.1 µM
GI50 [39]: 10.5 µM
TGI [39]: 23.7 µM
GI50 [40]: 2960 nM
TGI [40]: 9.87 µM
GI50 [41]: 3.89 µM
TGI [41]: 17.3 µM
GI50 [42]: 3.7 µM
TGI [42]: 13.6 µM
GI50 [43]: 3.52 µM
TGI [43]: 12.4 µM
GI50 [44]: 8.66 µM
TGI [44]: 26.6 µM
GI50 [45]: 2160 nM
TGI [45]: 5.58 µM
GI50 [58]: 3.07 µM
TGI [58]: 16.8 µM
GI50 [46]: 2500 nM
TGI [46]: 5.27 µM
GI50 [47]: 1920 nM
TGI [47]: 8.57 µM
GI50 [48]: 5.55 µM
TGI [48]: 22.5 µM
GI50 [49]: 2220 nM
TGI [49]: 4.93 µM
GI50 [56]: 10.1 µM
TGI [56]: 23.3 µM
GI50 [50]: 3.28 µM
TGI [50]: 11 µM
GI50 [51]: 14.4 µM
TGI [51]: 31.3 µM
GI50 [52]: 5.04 µM
TGI [52]: 17.2 µM
GI50 [53]: 18.4 µM
TGI [53]: 33.9 µM
GI50 [54]: 3.37 µM
TGI [54]: 13.7 µM
GI50 [55]: 3.36 µM
TGI [55]: 10.9 µM
